Laboratory results as given in US20260217683A1, “PYRIDAZINONE HETEROCYCLIC COMPOUND MYOSIN II INHIBITOR AND USE THEREOF” (Xizang Haisco Pharmaceutical Co., Ltd., priority 2023, published 2026).
Like-named read-outs stand apart in the source and are kept apart here.

What was measured:
Format in all cases: biochemical
[1] = test system: rabbit skeletal muscle myosin; assay: Inhibition of hydrolysis of ATP by rabbit skeletal muscle myosin
Experimental: The purpose of this test was to evaluate the ability of compounds to inhibit the hydrolysis of ATP by rabbit skeletal muscle myosin. The determination method was as follows:
• Preformed F-actin filaments (#AKF99-B, Cytoskeleton) were diluted to 1 mg/mL with Reaction buffer (25 mM Tris-HCL, pH 7.5+35 mM KCl+0.1 mM EGTA+1 mM MgCl2); • Rabbit myosin (#MYO2-A, Cytoskeleton) was diluted to 0.1 mg/mL with Resuspension buffer (15 mM Tris-HCL, PH7.5+0.2 M KCl+1 mM MgCl2); • ATP (#BSA04-001, Cytoskeleton) was diluted to 3 mM working solution with 15 mM Tris-HCL (PH=7.5);
• adding 13 μL reaction buffer+12 μL F-actin to actin control wells; • adding 10 μL reaction buffer+12 μL F-actin+3 μL myosin II to positive control wells; • adding 10 μL of compound working solution+12 μL of F-actin+3 μL of myosin II to the compound wells; • adding 5 μL of ATP working solution to all test wells to start the reaction, and simultaneously adding a sample to the Pi standard wells according to the instruction (#BK054, Cytoskeleton); • gently mixing and accurately incubating at 37° C. for 60 min; • adding 70 μL of CytoPhos Reagent (#BK054, Cytoskeleton) to each well and incubating for 10 min to stop the reaction.
• the OD value of each well was detected at 650 nm using the endpoint method. The standard curve was fitted according to Pi concentration and OD value, and the Pi concentration of each test well was obtained. Inhibition (%)=(Pi positive control well-Pi test well)/Pi positive control well*100%. The Inhibition %-[…] curve was fitted with Graphpad Prism 8 software, and IC50 was calculated.

cardiac myosin SII = target: T1, cardiac myosin SII (Bos taurus, UniProt Q9BE39); assay: Inhibition of hydrolysis of ATP by cardiac myosin SII; conditions: 100 μM compound
T1 construct: purchased Cytoskeleton #MYO3-A
Experimental: The purpose of this test was to evaluate the ability of compounds to inhibit the hydrolysis of ATP by cardiac myosin SII. The determination method was as follows: • 1. Solution formulation: • Preformed F-actin filaments (#AKF99-B, Cytoskeleton) were diluted to 1 mg/mL with Reaction buffer (15 mM Tris-HCL. PH7.5+10 mM KCl+0.1 mM EGTA+2 mM MgCl2); • Cardiac Muscle myosin (#MYO3-A, Cytoskeleton) was diluted to 1 mg/mL with Resuspension buffer (15 mM Tris-HCL, PH7.5+0.2M KCl+1 mM MgCl2); • ATP (#BSA04-001, Cytoskeleton) was diluted to 3 mM working solution with 15 mM Tris-HCL (PH=7.5); • 2. Formulation of working solution of compounds: the final compound concentration was 100 μM • 3. Experimental steps: • adding 10 μL of compound working solution+12 μL of Preformed F-actin filaments+3 μL of Cardiac Muscle myosin to the compound wells; • adding 10 μL of reaction buffer containing DMSO+12 μL Preformed F-actin filaments +3 μL Cardiac Muscle myosin to positive control wells; • adding 10 μL of reaction buffer containing DMSO+12 μL Preformed F-actin filaments +3 μL Resuspension buffer to negative control wells; • adding 5 μL of 3 mM ATP working solution to all test wells to start the reaction, gently mixing and incubating at 37° C. for 2 h; • after the reaction was completed, taking 6 μL of reaction liquid, adding 24 μL of reaction buffer for 5-fold dilution, then detecting the content of the product Pi with a phosphate kit (#BK054, Cytoskeleton); • adding a sample to Pi standard wells according to the instructions; • adding 70 μL of CytoPhos Reagent (#BK054, Cytoskeleton) to each well and incubating at room temperature for 10 min before detection. • 4. Detection: • the OD value of each well was detected at 650 nm. The standard curve was fitted according to Pi standard concentration and OD value, and the Pi concentration of each test well was obtained. Inhibition (%)=(positive control well−test well)/positive control well*100%.

smooth muscle myosin S1 = target: T2, smooth muscle myosin S1 (Gallus gallus, UniProt P10587); assay: Inhibition of hydrolysis of ATP by smooth muscle myosin S1 fragments; conditions: 100 μM compound
T2 construct: purchased Cytoskeleton #CS-MYS05
Experimental: The purpose of this test was to evaluate the ability of compounds to inhibit the hydrolysis of ATP by smooth muscle myosin Si fragments. The determination method was as follows: • 1. Solution formulation • F-actin polymer: Cardiac Actin powder (#CS-AD99, Cytoskeleton) was dissolved in a buffer (5 mM Pipes-KOH solution, PH=7.0, containing 100 μM ATP and 500 μM DTT) to form a 2 mg/mL solution and the solution was left at room temperature for 30 min; then 2 mM MgCl2 and 2 mM EGTA were added and the obtained system was left at room temperature for 40 min; • Smooth muscle SI fragment (#CS-MYS05, Cytoskeleton) was diluted with a pre-cooled PM12 buffer containing 1 mM DTT (12 mM Pipes-KOH solution, PH=7.0, containing 2 mM MgCl2) to form a 0.7 mg/mL solution; • ATP (#BSA04-001, Cytoskeleton) was diluted to 5 mM working solution with 15 mM Tris-HCL (PH=7.5); • 2. […] Experimental steps: • adding 10 μL of compound working solution+6 μL of F-actin polymer+4 μL of Smooth muscle Si fragment solution to the compound wells; • adding 10 μL of PM12 buffer containing DMSO+6 μL of F-actin polymer+4 μL of Smooth muscle S1 fragment solution to positive control wells; • adding 10 μL of PM12 buffer containing DMSO+6 μL of F-actin polymer+4 μL of PM12 buffer to negative control wells; • adding […] of 5 mM ATP working solution to all test wells to start the reaction, gently mixing and incubating at 37° C. for 20 min; • after the reaction was completed, taking 6 μLL of reaction liquid, adding 24 μL of PM12 buffer for 5-fold dilution, then detecting the content of the product Pi with a phosphate kit (#BK054, Cytoskeleton); • adding a standard according to the instructions, adding 70 μL of CytoPhos Reagent (#BK054, Cytoskeleton) to all wells and incubating at room temperature for 10 min before detection. • 4. Detection: • the OD value of each well was detected at 650 nm. The standard curve was fitted according to Pi standard concentration and OD value, and the Pi concentration of each test well was obtained. Inhibition (%)=(positive control well−test well)/positive control well*100%.

[2] = inhibition of hydrolysis of ATP, class symbols, read-out: Rabbit skeletal muscle myosin (IC50)
[3] = read-out: IC50 for inhibition of hydrolysis of ATP by rabbit skeletal muscle myosin

T1 sequence (Q9BE39 whole entry): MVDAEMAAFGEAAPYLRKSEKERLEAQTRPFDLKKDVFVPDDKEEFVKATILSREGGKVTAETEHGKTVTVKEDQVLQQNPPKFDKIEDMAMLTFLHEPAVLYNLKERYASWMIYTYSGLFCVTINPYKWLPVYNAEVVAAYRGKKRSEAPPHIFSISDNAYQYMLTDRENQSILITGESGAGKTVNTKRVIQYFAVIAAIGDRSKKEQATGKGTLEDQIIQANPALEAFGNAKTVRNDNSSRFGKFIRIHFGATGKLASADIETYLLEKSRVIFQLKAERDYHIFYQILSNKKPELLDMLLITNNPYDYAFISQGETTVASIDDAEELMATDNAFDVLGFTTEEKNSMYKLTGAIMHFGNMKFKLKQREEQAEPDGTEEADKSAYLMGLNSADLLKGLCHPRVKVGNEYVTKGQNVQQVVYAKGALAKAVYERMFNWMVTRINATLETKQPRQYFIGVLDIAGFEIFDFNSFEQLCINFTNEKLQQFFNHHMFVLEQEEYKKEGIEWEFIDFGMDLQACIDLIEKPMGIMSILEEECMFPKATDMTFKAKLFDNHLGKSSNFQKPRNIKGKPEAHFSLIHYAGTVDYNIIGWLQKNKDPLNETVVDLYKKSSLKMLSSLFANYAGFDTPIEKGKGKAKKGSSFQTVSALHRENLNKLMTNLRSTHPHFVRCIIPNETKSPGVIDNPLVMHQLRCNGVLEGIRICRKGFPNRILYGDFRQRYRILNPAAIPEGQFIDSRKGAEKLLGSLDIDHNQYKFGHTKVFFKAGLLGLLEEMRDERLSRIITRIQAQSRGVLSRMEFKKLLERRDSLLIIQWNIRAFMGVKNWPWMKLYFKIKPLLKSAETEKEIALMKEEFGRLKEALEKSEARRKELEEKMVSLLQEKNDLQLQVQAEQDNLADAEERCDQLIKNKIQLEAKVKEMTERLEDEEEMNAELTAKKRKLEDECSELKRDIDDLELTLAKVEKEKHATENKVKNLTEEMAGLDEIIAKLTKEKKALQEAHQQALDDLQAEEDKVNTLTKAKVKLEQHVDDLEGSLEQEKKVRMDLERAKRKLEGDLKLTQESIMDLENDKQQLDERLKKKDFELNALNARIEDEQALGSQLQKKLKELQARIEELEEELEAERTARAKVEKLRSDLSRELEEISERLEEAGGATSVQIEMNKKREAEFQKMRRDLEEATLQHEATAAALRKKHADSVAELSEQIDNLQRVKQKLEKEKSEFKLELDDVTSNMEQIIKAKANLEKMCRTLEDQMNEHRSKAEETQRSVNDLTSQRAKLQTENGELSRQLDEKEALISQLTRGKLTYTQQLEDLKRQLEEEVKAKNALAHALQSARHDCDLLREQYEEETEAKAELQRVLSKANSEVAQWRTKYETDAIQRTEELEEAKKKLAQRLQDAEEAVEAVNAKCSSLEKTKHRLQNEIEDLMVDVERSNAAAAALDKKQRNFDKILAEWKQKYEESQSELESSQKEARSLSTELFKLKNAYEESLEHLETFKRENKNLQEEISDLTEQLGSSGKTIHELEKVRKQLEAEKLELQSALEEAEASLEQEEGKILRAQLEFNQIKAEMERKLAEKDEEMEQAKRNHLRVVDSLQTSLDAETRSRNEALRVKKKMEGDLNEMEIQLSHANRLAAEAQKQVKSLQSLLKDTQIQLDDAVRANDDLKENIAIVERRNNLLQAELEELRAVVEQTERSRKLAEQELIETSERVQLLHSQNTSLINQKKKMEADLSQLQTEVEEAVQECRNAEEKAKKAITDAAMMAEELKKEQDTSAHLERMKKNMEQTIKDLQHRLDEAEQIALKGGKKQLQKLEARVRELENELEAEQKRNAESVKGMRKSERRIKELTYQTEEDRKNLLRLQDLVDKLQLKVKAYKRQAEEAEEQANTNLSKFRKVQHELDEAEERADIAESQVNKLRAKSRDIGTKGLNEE
T1 sequence (P85100 whole entry partner): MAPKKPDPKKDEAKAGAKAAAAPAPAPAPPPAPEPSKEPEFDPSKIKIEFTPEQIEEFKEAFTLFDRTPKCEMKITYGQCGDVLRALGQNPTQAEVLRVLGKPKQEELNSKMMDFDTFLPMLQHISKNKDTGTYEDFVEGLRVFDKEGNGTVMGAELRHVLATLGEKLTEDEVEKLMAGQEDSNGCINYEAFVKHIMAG
T1 sequence (Q3SZE5 whole entry partner): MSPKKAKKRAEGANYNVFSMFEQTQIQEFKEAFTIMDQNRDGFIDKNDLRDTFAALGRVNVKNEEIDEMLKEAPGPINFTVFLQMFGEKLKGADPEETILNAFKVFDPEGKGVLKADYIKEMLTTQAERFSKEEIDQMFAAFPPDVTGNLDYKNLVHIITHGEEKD
T2 sequence (P10587 84-789 limits assumed): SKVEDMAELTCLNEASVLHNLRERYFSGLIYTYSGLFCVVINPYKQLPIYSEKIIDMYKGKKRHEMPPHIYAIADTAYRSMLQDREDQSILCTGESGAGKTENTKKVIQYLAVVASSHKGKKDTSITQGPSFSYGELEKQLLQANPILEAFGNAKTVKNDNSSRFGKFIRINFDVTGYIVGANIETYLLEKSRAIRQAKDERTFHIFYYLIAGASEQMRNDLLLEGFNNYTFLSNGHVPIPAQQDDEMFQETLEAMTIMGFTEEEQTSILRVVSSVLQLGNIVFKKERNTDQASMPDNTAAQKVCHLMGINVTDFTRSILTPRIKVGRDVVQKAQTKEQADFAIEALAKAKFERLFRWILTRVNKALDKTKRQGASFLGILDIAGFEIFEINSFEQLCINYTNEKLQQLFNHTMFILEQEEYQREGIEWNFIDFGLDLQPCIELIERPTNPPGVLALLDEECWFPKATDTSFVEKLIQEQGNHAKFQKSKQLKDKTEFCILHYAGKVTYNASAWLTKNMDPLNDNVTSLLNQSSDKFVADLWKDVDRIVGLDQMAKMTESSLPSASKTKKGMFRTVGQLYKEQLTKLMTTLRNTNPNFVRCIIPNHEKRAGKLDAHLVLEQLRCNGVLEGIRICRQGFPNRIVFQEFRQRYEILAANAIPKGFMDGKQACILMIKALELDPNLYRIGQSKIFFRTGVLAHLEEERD
T2 sequence (P02607 whole entry partner, the tested form may be a part): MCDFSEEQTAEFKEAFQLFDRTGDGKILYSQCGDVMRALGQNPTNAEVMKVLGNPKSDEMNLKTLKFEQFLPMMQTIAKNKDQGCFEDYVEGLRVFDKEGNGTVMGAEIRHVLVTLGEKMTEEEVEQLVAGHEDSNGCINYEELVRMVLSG

Row | IC50 [1, 2] [µM] | IC50 [1, 3] [µM] | SMILES | also measured
1 | < 2.5 |  | O=c1ccc(-c2cnc(OCCCCl)nc2)nn1Cc1ccc2c(c1)CCC2 [Compound 77] | 
2 | < 2.5 | 0.2 | O=c1ccc(-c2cnc(OCC(F)(F)F)nc2)nn1Cc1ccc2c(c1)CC=C2 [Compound 138] | 
3 | < 2.5 |  | O=C1CCc2c(Cl)cc(Cn3nc(-c4cnc(Oc5cccc(F)n5)nc4)ccc3=O)cc21 [Compound 174] | 
4 | < 2.5 | 0.53 | O=C1CCc2c(Cl)cc(Cn3nc(-c4cnc(Oc5cncc(Cl)c5)nc4)ccc3=O)cc21 [Compound 175] | 
5 | 2.5 to 20 |  | O=C1CCc2ccc(Cn3nc4c(cc3=O)CCc3nc(OCC(F)(F)F)ncc3-4)cc21 [Compound 154] | 
6 | < 2.5 |  | O=c1ccc(-c2cnc(OCCCCl)nc2)nn1Cc1ccc2c(c1)CC2 [Compound 70] | inhibition at 100 µM (cardiac myosin SII): 18%
7 | 2.5 to 20 |  | O=C1CCc2ccc(Cn3nc(-c4cnc(Oc5ccc(F)cn5)nc4)ccc3=O)cc21 [Compound 146] | 
8 | < 2.5 |  | O=C1CCc2ccc(Cn3nc(-c4cnc(OCC(F)(F)F)nc4)ccc3=O)c(F)c21 [Compound 152] | inhibition at 100 µM (smooth muscle myosin S1): -5%
9 | < 2.5 | 0.5 | O=c1ccc(-c2cnc(OCC(F)(F)F)nc2)nn1Cc1ccc2c(c1)CC1CC21 (centres unmarked) [Compound 161] | Cardiac myosin SII (Inhibition @ 100 μM) (cardiac myosin SII; 100 µM): 5%
10 | < 2.5 | 0.53 | O=C1CCc2c(Cl)cc(Cn3nc(-c4cnc(Oc5cncc(F)c5)nc4)ccc3=O)cc21 [Compound 173] | 
11 | < 2.5 | 0.8 | O=c1ccc(-c2cnc(OCC(F)(F)F)nc2)nn1Cc1cc2c(cc1F)CCC2 [Compound 99] | 
12 | 2.5 to 20 |  | O=C1CCc2c1cc(Cn1nc(-c3cnc(OCC(F)(F)F)nc3)ccc1=O)cc2C1CC1 [Compound 177] | 
13 | < 2.5 |  | O=c1ccc(-c2cnc(OCCC(F)(F)F)nc2)nn1Cc1ccc2c(c1)CC2 [Compound 65] | 
14 | < 2.5 | 0.1 | O=c1ccc(-c2cnc(OCCC(F)F)nc2)nn1Cc1ccc2c(c1)CC2 [Compound 68] | 
15 | < 2.5 |  | O=c1ccc(-c2cnc(C3CC3)nc2)nn1Cc1ccc2c(c1)CCC2 [Compound 78] | 
16 | < 2.5 | 0.1 | O=c1ccc(-c2cnc(OCCCF)nc2)nn1Cc1ccc2c(c1)CC2 [Compound 69] | inhibition at 100 µM (cardiac myosin SII): 19%
17 | < 2.5 | 0.2 | O=c1ccc(-c2cnc(OCC3CC3)nc2)nn1Cc1ccc2c(c1)CC2 [Compound 86] | 
18 | 2.5 to 20 |  | CC(c1ccc2c(c1)CC2)n1nc(-c2cnc(OCC(F)(F)F)nc2)ccc1=O (centres unmarked) [Compound 61] | 
19 | 2.5 to 20 |  | O=C1CCc2ccc(Cn3nc(-c4cnc(Oc5ccnc(C(F)(F)F)c5)nc4)ccc3=O)cc21 [Compound 143] | 
20 | < 2.5 | 0.1 | O=c1ccc(-c2cnc(OCC(F)F)nc2)nn1Cc1ccc2c(c1)CC2 [compound 60] | 
21 | 2.5 to 20 |  | O=c1cc2c(nn1Cc1ccc3c(c1)CC3)-c1cnc(OC3CCOC3)nc1CC2 (centres unmarked) [Compound 122] | 

Row | IC50 [1, 2] [µM] | IC50 [1, 3] [µM] | SMILES | also measured
22 | < 2.5 | 0.2 | O=c1ccc(-c2cnc(OC3COC3)nc2)nn1Cc1ccc2c(c1)CC2 [Compound 94] | 
23 | < 2.5 |  | O=c1ccc(-c2cnc(OC3CC(F)(F)C3)nc2)nn1Cc1ccc2c(c1)CC2 [Compound 83] | 
24 | 2.5 to 20 |  | O=c1ccc(-c2cnc(OCC(F)(F)F)nc2)nn1Cc1ccc2c(c1)CCC2(F)F [Compound 79] | 
25 | < 2.5 | 0.2 | O=c1ccc(-c2cnc(OCC(F)(F)F)nc2)nn1Cc1ccc2c(c1F)CCC2 [Compound 98] | 
26 | < 2.5 | 0.3 | O=c1ccc(-c2cnc(OCC3CC3(F)F)nc2)nn1Cc1ccc2c(c1)CC2 (centres unmarked) [Compound 87] | 
27 | < 2.5 | 0.3 | O=c1ccc(-c2cnc(OCC(F)(F)F)nc2)nn1Cc1ccc2c(c1)C=CC2 [Compound 137] | inhibition at 100 µM (smooth muscle myosin S1): 11%
28 | < 2.5 | 0.5 | O=c1ccc(-c2cnc(OCCF)nc2)nn1Cc1ccc2c(c1)CCC2 [Compound 75] | 
29 | 2.5 to 20 |  | O=C1CCc2ccc(Cn3nc(-c4cnc(Oc5cccc(C(F)(F)F)n5)nc4)ccc3=O)cc21 [Compound 144] | 
30 | < 2.5 | 0.1 | O=c1ccc(-c2cnc(Oc3cncc(F)c3)nc2)nn1Cc1ccc2c(c1)CC2 [Compound 101] | 
31 | < 2.5 |  | O=c1ccc(-c2cnc(OCCCF)nc2)nn1Cc1ccc2c(c1)CCC2 [Compound 71] | inhibition at 100 µM (cardiac myosin SII): 21%
32 | < 2.5 | 0.4 | O=c1ccc(-c2cnc(Oc3cncc(Cl)c3)nc2)nn1Cc1ccc2c(c1)CCC2 [Compound 132] | inhibition at 100 µM (cardiac myosin SII): 1%
33 | 2.5 to 20 |  | O=c1ccc(-c2cnc(OC3CC(F)(F)C3)nc2)nn1Cc1ccc2c(c1)CCC2 [Compound 85] | 
34 | < 2.5 |  | O=c1ccc(-c2cnc(OCCF)nc2)nn1Cc1ccc2c(c1)CC2 [Compound 66] | 
35 | < 2.5 | 0.2 | O=c1ccc(-c2cnc(OC3CC3)nc2)nn1Cc1ccc2c(c1)CC2 [Compound 82] | 
36 | 2.5 to 20 |  | O=C1CCCc2ccc(Cn3nc(-c4cnc(OCC(F)(F)F)nc4)ccc3=O)cc21 [Compound 168] | 
37 | < 2.5 | 0.1 | O=c1ccc(-c2cnc(OCC(F)F)nc2)nn1Cc1ccc2c(c1)C(F)(F)CC2 [Compound 100] | 
38 | < 2.5 | 0.2 | O=c1ccc(-c2cnc(O[C@@H]3CCOC3)nc2)nn1Cc1ccc2c(c1)CC2 [Compound 107] | 
39 | < 2.5 |  | CC(c1ccc2c(c1)CC2)n1nc(-c2cnc(OCC(F)(F)F)nc2)ccc1=O (single isomer, unassigned) [Compound 64] | 
40 | < 2.5 |  | O=c1ccc(-c2cnc(OCCC(F)F)nc2)nn1Cc1ccc2c(c1)CCC2 [Compound 76] | 
41 | 2.5 to 20 |  | O=c1ccc(-c2cnc(OC3CCC(F)(F)CC3)nc2)nn1Cc1ccc2c(c1)CC2 [Compound 96] | inhibition at 100 µM (cardiac myosin SII): -9%
